Data from ChEMBL document CHEMBL1136230, “Antiallergic principles from Alpinia galanga: structural requirements of phenylpropanoids for inhibition of degranulation and release of TNF-alpha and IL-4 in RBL-2H3 cells” (Bioorg Med Chem Lett, 2003).
Values belong to the molecule of their own block, whether it stands above or below them.

Assays:
RBL-2H3 [1] = test: Percentage inhibition against release of beta-hexosaminidase from RBL-2H3 cells at 100 uM from control; format: functional; settings: Rattus norvegicus
Mus musculus [2] = test: In vivo inhibitory activity against leakage of dye on ear PCA reaction 30 min after 50 mg/kg oral administration in mice; format: functional; parameters: scale not given: the % may be the effect or the level left
RBL-2H3 [3] = test: Percentage inhibition against antigen-induced TNF-alpha production in RBL-2H3 cells at 3 uM concentration; format: functional; settings: Rattus norvegicus
RBL-2H3 [4] = test: Percentage inhibition against antigen-induced IL-4 production in RBL-2H3 cells at 10 uM concentration; format: functional; settings: Rattus norvegicus
RBL-2H3 [5] = test: Inhibitory activity against release of beta-hexosaminidase from RBL-2H3 cells; format: functional, cell-based; settings: Rattus norvegicus
RBL-2H3 [6] = test: Percentage inhibition against antigen-induced TNF-alpha production in RBL-2H3 cells at 30 uM concentration; format: functional; settings: Rattus norvegicus
RBL-2H3 [7] = test: Percentage inhibition against antigen-induced IL-4 production in RBL-2H3 cells at 30 uM concentration; format: functional; settings: Rattus norvegicus
RBL-2H3 [8] = test: Inhibitory activity against TNF-alpha production in RBL-2H3 cells was determined; format: functional, cell-based; settings: Rattus norvegicus
RBL-2H3 [9] = test: Percentage inhibition against antigen-induced TNF-alpha production in RBL-2H3 cells at 0 uM concentration; format: functional, Rattus norvegicus
Mus musculus [10] = test: In vivo inhibitory activity against leakage of dye on ear PCA reaction 30 min after 25 mg/kg oral administration in mice; format: functional; parameters: scale not given: the % may be the effect or the level left
RBL-2H3 [11] = test: Percentage inhibition against antigen-induced IL-4 production in RBL-2H3 cells at 0 uM concentration; format: functional, Rattus norvegicus
RBL-2H3 [12] = test: Percentage inhibition against antigen-induced TNF-alpha production in RBL-2H3 cells at 10 uM concentration; format: functional; settings: Rattus norvegicus
Mus musculus [13] = test: In vivo inhibitory activity against leakage of dye on ear PCA reaction 30 min after 6.25 mg/kg oral administration in mice; format: functional; parameters: scale not given: the % may be the effect or the level left
RBL-2H3 [14] = test: Percentage inhibition against antigen-induced IL-4 production in RBL-2H3 cells at 3 uM concentration; format: functional; settings: Rattus norvegicus
RBL-2H3 [15] = test: Inhibitory activity against IL-4 production in RBL-2H3 cells was determined; format: functional, cell-based; settings: Rattus norvegicus
Mus musculus [16] = test: In vivo inhibitory activity against leakage of dye on ear PCA reaction 30 min after 12.5 mg/kg oral administration in mice; format: functional; parameters: scale not given: the % may be the effect or the level left
RBL-2H3 [17] = test: Percentage inhibition against antigen-induced IL-4 production in RBL-2H3 cells at 100 uM concentration; format: functional; settings: Rattus norvegicus
RBL-2H3 [18] = test: Percentage inhibition against antigen-induced TNF-alpha production in RBL-2H3 cells at 100 uM concentration; format: functional; settings: Rattus norvegicus
Mus musculus [19] = test: In vivo inhibitory activity against leakage of dye on ear PCA reaction 30 min after 400 mg/kg oral administration in mice; format: functional; parameters: scale not given: the % may be the effect or the level left
Mus musculus [20] = test: In vivo inhibitory activity against leakage of dye on ear PCA reaction 30 min after 100 mg/kg oral administration in mice; format: functional; parameters: scale not given: the % may be the effect or the level left
Mus musculus [21] = test: In vivo inhibitory activity against leakage of dye on ear PCA reaction 30 min after 200 mg/kg oral administration in mice; format: functional; parameters: scale not given: the % may be the effect or the level left

Structure (SMILES): C=C[C@H](OC(C)=O)c1ccccc1
inhibition at 100 µM (RBL-2H3 [1]): 9%

Structure (SMILES): C=CCc1ccc(OC(C)=O)cc1
inhibition at 100 µM (RBL-2H3 [1]): 11%

Structure (SMILES): OC/C=C/c1ccc(O)cc1
inhibition at 100 µM (RBL-2H3 [1]): 2%

IC50 (RBL-2H3 [5]): 19 µM
IC50 (RBL-2H3 [8]): 5.8 µM
IC50 (RBL-2H3 [15]): 12 µM
Structure (SMILES): C=C[C@H](OC(C)=O)c1ccc(OC(C)=O)c(OC)c1
Control (Mus musculus [2]): 37.8%
inhibition at 3 µM (RBL-2H3 [3]): 25%
inhibition at 10 µM (RBL-2H3 [4]): 45.9%
inhibition at 30 µM (RBL-2H3 [6]): 101%
inhibition at 30 µM (RBL-2H3 [7]): 98.1%
Inhibition (RBL-2H3 [9]): 0%
Control (Mus musculus [10]): 54.7%
Inhibition (RBL-2H3 [11]): 0%
inhibition at 10 µM (RBL-2H3 [12]): 89%
Control (Mus musculus [13]): 65.2%
inhibition at 3 µM (RBL-2H3 [14]): 39.4%
Control (Mus musculus [16]): 58.4%
inhibition at 100 µM (RBL-2H3 [17]): 99.9%

Structure (SMILES): CC(=O)OC/C=C/c1ccc(O)cc1
inhibition at 100 µM (RBL-2H3 [1]): 6%

Structure (SMILES): C=CCc1ccc(O[C@H]2O[C@@H](CO)[C@H](O)[C@H](O)[C@@H]2O)cc1
inhibition at 100 µM (RBL-2H3 [1]): 0%

Structure (SMILES): C=C[C@H](O)c1ccc(OC(C)=O)cc1
inhibition at 100 µM (RBL-2H3 [1]): 4%

Structure (SMILES): C=C[C@H](O)c1ccccc1
inhibition at 100 µM (RBL-2H3 [1]): 3%

IC50 (RBL-2H3 [5]): 60 µM
Structure (SMILES): CC[C@H](OC(C)=O)c1ccc(OC(C)=O)cc1

IC50 (RBL-2H3 [5]): > 100 µM
Structure (SMILES): CC(=O)OC/C=C/c1ccc(OC(C)=O)cc1
inhibition at 100 µM (RBL-2H3 [1]): 21%

Structure (SMILES): O=C(O)/C=C/c1cccc(O)c1
inhibition at 100 µM (RBL-2H3 [1]): 1%

Structure (SMILES): C=C[C@H](OC(C)=O)c1ccc(OC(C)=O)cc1 [1'-ACETOXYCHAVICOL ACETATE]
Control (Mus musculus [2]): 44.3%
inhibition at 3 µM (RBL-2H3 [3]): 5.4%
inhibition at 10 µM (RBL-2H3 [4]): 45.9%
IC50 (RBL-2H3 [5]): 15 µM
inhibition at 30 µM (RBL-2H3 [6]): 66.9%
inhibition at 30 µM (RBL-2H3 [7]): 98.1%
IC50 (RBL-2H3 [8]): 17 µM
Inhibition (RBL-2H3 [9]): 0%
Control (Mus musculus [10]): 49.5%
Inhibition (RBL-2H3 [11]): 0%
inhibition at 10 µM (RBL-2H3 [12]): 32.4%
Control (Mus musculus [13]): 72.4%
inhibition at 3 µM (RBL-2H3 [14]): 39.4%
IC50 (RBL-2H3 [15]): 12 µM
inhibition at 100 µM (RBL-2H3 [18]): 87.2%
Control (Mus musculus [16]): 65.5%
inhibition at 100 µM (RBL-2H3 [17]): 99.9%

Structure (SMILES): COc1ccc(/C=C/C(=O)O)cc1 [4-METHOXYCINNAMIC ACID]
inhibition at 100 µM (RBL-2H3 [1]): 11%

Structure (SMILES): O=C(O)/C=C/c1ccc(O)c(O)c1 [CAFFEIC ACID]
inhibition at 100 µM (RBL-2H3 [1]): 5%

Structure (SMILES): C=CCc1ccc(O)cc1 [CHAVICOL]
inhibition at 100 µM (RBL-2H3 [1]): 3%

Structure (SMILES): O=C(O)/C=C/c1ccccc1 [CINNAMIC ACID]
inhibition at 100 µM (RBL-2H3 [1]): 7%

Structure (SMILES): O=C(O)/C=C/c1ccc(O)cc1 [COUMARIC ACID]
inhibition at 100 µM (RBL-2H3 [1]): 6%

Structure (SMILES): C=CCc1ccc(O)c(OC)c1 [EUGENOL]
inhibition at 100 µM (RBL-2H3 [1]): 4%

Structure (SMILES): C=CCc1ccc(OC(C)=O)c(OC)c1 [EUGENYL ACETATE]
inhibition at 100 µM (RBL-2H3 [1]): 9%

IC50 (RBL-2H3 [5]): > 100 µM
Structure (SMILES): C=CCc1ccc(O)c(O)c1 [HYDROXYCHAVICOL]
inhibition at 100 µM (RBL-2H3 [1]): 17%

Structure (SMILES): O=c1cc(-c2ccc(O)c(O)c2)oc2cc(O)cc(O)c12 [LUTEOLIN]
inhibition at 3 µM (RBL-2H3 [3]): 25%
inhibition at 10 µM (RBL-2H3 [4]): 89.4%
inhibition at 30 µM (RBL-2H3 [6]): 101%
inhibition at 30 µM (RBL-2H3 [7]): 99.2%
IC50 (RBL-2H3 [8]): 5.8 µM
Inhibition (RBL-2H3 [9]): 0%
Inhibition (RBL-2H3 [11]): 0%
inhibition at 10 µM (RBL-2H3 [12]): 89%
inhibition at 3 µM (RBL-2H3 [14]): 41.6%
IC50 (RBL-2H3 [15]): 3.7 µM

Structure (SMILES): C=CCc1ccc(OC)c(OC)c1 [METHYLEUGENOL]
inhibition at 100 µM (RBL-2H3 [1]): 1%

Structure (SMILES): COc1ccc(/C=C/C(=O)O)cc1OC [O,O'-DIMETHYLCAFFEIC ACID]
inhibition at 100 µM (RBL-2H3 [1]): 9%

Structure (SMILES): O=C(O)/C=C/c1ccccc1O [O-COUMARIC ACID]
inhibition at 100 µM (RBL-2H3 [1]): 11%

Structure (SMILES): COc1cc(/C=C/C(=O)O)cc(OC)c1O [SINAPINATE]
inhibition at 100 µM (RBL-2H3 [1]): 10%

Structure (SMILES): COc1ccc(/C=C/C(=O)Nc2ccccc2C(=O)O)cc1OC [TRANILAST]
Control (Mus musculus [19]): 42.7%
Control (Mus musculus [20]): 66%
Control (Mus musculus [21]): 49.8%

IC50 (RBL-2H3 [5]): > 100 µM
Structure (SMILES): O=C/C=C/c1ccc(O)cc1 [p-HYDROXYCINNAMALDEHYDE]
inhibition at 100 µM (RBL-2H3 [1]): 22%
